Measurements taken from US9540640B2, “Compositions and methods for inhibiting hypdxia induced damage” (Health Research, Inc., priority 2012, dated 2017).

Key:
HK-2 cells [1] = test: Individual shRNA screening: survival of transduced HK-2 cells under hypoxia (Protocol 2); assay type: cell-based, human; conditions: viable shRNA-transduced HK-2 cells after hypoxia (0.2% oxygen 48 hours, low glucose DMEM) vs control HK-2 cells; 2-6 independent experiments; methylene blue
Excerpt: shRNA of the invention can be expressed from any suitable vector such as a recombinant viral vector either as two separate, complementary RNA molecules, or as a single RNA molecule with two complementary regions. In this regard, any viral vector capable of accepting the coding sequences for the shRNA molecule(s) to be expressed can be used. Examples of suitable vectors include but are not limited to vectors derived from adenovirus, adeno-associated virus, retroviruses (e.g, lentiviruses, Rhabdoviruses, murine leukemia virus), herpes virus, and the like. A preferred virus is a lentivirus. The tropism of the viral vectors can also be modified by pseudotyping the vectors with envelope proteins or other surface antigens from other viruses. As an alternative to expression of shRNA in cells from a recombinant vector, chemically stabilized shRNA or siRNAs may also be used administered as the agent in the method of the invention. Vectors for expressing shRNA which in turn produces siRNA once introduced into a cell are commercially available. Further, shRNAs which facilitate produce of siRNA targeted to virtually every known human gene are also known and are commercially available. In embodiments specific shRNAs are those which comprise polynucleotide sequences presented in Table 2, wherein those sequences are targeted to the genes as indicated. In particular, Table 2 provides the sequence of segments of shRNAs that target the HRGs of the present disclosure. […] “RPCI” under source designates the “shRNA Resource of Roswell Park Cancer Institute” which distributes shRNAs from commercial vendors. The catalog # column signifies a reference under which each of the shRNAs are made available to the public. The SEQ ID # column refers to the sequence listing that forms a part of this disclosure. The polynucleotide sequences provided in Table 2 are cDNA sequences that recognize the target gene mRNA via shRNA. It will be recognized by those skilled in the art that the shRNAs used in the Examples presented herein have the identical sequences as listed in Table 2, except for substitution of each thymine with uracil. It will be also recognize that each of the shRNAs as used in practice has additional sequences that are typical of shRNA constructs, but that the sequences listed in Table 2 are the ones that are antisense to the mRNA of the indicated HRGs.
Protocol 2: Individual shRNA screening.
Cell Preparation: Lentiviral vectors containing various shRNAs of interest were obtained from commercial sources, and packaged in 293T cells. HK-2 cells were then transduced with these expression constructs and selected for the presence of a vector-encoded antibiotic resistance marker.
Hypoxia Protocol: Day 0: HK-2 cells containing individual shRNAs were seeded in triplicate on two 96-well plates, 3×10^4 cells/well. Negative controls included uninfected cells or cells infected with a corresponding empty vector. Day 1: Keratinocyte medium was removed from the plates and fresh DMEM containing low glucose was added. One of the plates was then transported to a chamber that contained 0.2% oxygen for 48 hours, while the other remained at normoxia for the same period of time. Day 3: The cells were rescued from hypoxia and the plates were immediate fixed and stained with methylene blue to assess survival. Results were then graphed as the percent of stain of the corresponding cells incubated in normoxic conditions minus the background (non-specific dye absorption by empty wells).

kidneys = test: Mouse model of acute renal ischemia, plasma markers of kidney damage; assay type: in vivo; conditions: i.p. 30 mg/kg or 90 mg/kg 30 minutes before 25 min ischemia of both kidneys, 24 hrs after reperfusion, FIG. 8
Description: In particular, the protective effects of chemically inhibiting TACR1 were examined in a mouse model of acute renal ischemia using the following protocol: i. 30 minutes before the surgery, mice received an i.p. injection of a TACR1 inhibitor (L-733,060) at either 30 mg/kg or 90 mg/kg, or of the respective vehicle (saline). ii. Under general anesthesia with Ketamin/Rompun, the mice were subjected to 25 min of ischemic of both kidneys. Each of the 2 kidneys was exposed through a flank incision. The kidney pedicle was clamped with atraumatic clamps for 25 min. iii. Mice were kept in an incubator at constant temperature 36 C during the 25 min of ischemia. After 25 min of ischemia, clamps were removed and wounds were closed. iv. 24 hrs after reperfusion blood samples were taken and mice were sacrificed. v. The levels of biochemical markers of kidney damage were measured in the plasma of the collected blood. Specifically, creatinine, neutrophil gelatinase-associated lipocalin (NGAL), osteopontin and urea (blood urea nitrogen) were measured.

hRPTEC cells = test: TACR1 inhibitor: survival of hRPTEC cells under hypoxia; assay type: cell-based; conditions: 0.2% oxygen 48 hours, low glucose DMEM, inhibitor added 1 hour before; methylene blue; FIG. 7
Description: The following protocol was used: Day 0: hRPTEC were seeded on two 96-well plates, 2×10^4 cells/well. Day 1: Keratinocyte medium was removed from the plates and fresh DMEM containing low glucose and the indicated concentration of the TACR1 inhibitor (L-733,060) was added. Each concentration was examined in quadruplicate fashion. The two plates were incubated in the presence of the inhibitor at normal growth conditions for 1 hour, at which time one of the plates was transported to a chamber that contained 0.2% oxygen for 48 hours, while the other remained at normoxia for the same period of time. Day 3: The cells were rescued from hypoxia and the plates were immediate fixed and stained with methylene blue to assess survival. The percent of stain of the corresponding cells incubated in normoxic conditions minus the background (non-specific dye absorption by empty wells) was calculated as a measure of cell resistance to the hypoxia. The results were plotted as a fold increase in resistance over that of cells not treated with L-733,060.

HK-2 cells [2] = test: Combined inhibition of RhoB (shRNA) and TACR1 (L-733,060): HK-2 survival in hypoxia; assay type: cell-based; conditions: L-733,060 5 μM on HK2-RhoB cells (shRNA to RhoB) vs either one alone; 0.2% oxygen 48 hours; FIG. 9
Description: To obtain the data presented in FIG. 9, HK-2 cells were trasnduced with either a construct expressing an shRNA to RhoB (cell line “HK2-RhoB”) or the corresponding empty vector (cell line “HK2-vector”). The survival of cells in hypoxic condition with or without addition of TACR1 inhibitor was evaluated using the following protocol: Day 0: HK-2 cells were seeded on two 96-well plates, 3×10^4 cells/well. Day 1: Keratinocyte medium was removed from the plates and fresh DMEM containing low glucose. TACR1 inhibitor (L-733,060; 5 μM) was added to half of the wells of either HK2-RhoB or HK2-vector. One hour later one of the plates was transported to a chamber that contained 0.2% oxygen for 48 hours, while the other remained at normoxia for the same period of time. Day 3: The cells were rescued from hypoxia and the plates were immediate fixed and stained with methylene blue to assess survival. Results were then graphed as the percent of stain of the corresponding cells incubated in normoxic conditions minus the background (non-specific dye absorption by empty wells).

HKC8 cells = test: TACR1 inhibitor: protection of HKC8 cells under hypoxia; assay type: cell-based; conditions: 5 μM, 0.2% oxygen 48 hours, low glucose DMEM; methylene blue; FIG. 11
Description: We also tested the protective activity of a chemical TACR1 inhibitor in HKC8 cells using the following protocol. Day 0: HKC8 cells were seeded in complete keratinocyte medium at a density of 2×10^4 cells per well on two 96-well plates. Day 1: Keratinocyte medium was removed from the plates and fresh DMEM containing low glucose and 5 μM TACR1 inhibitor (L-733,060) was added where indicated. Treated and untreated cells were present on the plates in triplicate. The two plates were incubated in the presence of the inhibitor at normal growth conditions for 1 hour, at which time one of the plates was transported to a chamber that contained 0.2% oxygen for 48 hours, while the other remained at normoxia for the same duration. Day 3: Following exposure to hypoxia, the cells were rescued and the plates were immediately fixed and stained with methylene blue to assess survival. Results were then graphed as the percent of stain of the corresponding cells incubated in normoxic conditions minus the background (non-specific dye absorption by empty wells).

Compound | geometric mean of fold increase in cell number (HK-2 cells [1]) [fold] | further results
11 (TCTTGCCAAGGTTTATGGC; expressed or natural sequence) [compound 11] | 8 | 
12 (ATCTCTTTGGACTTGAAGC; expressed or natural sequence) [compound 12] | 9 | 
13 (TGATGTCTGGTGTAGTAGG; expressed or natural sequence) [compound 13] | 10 | 
14 (ATCTCCTGAATATTTCAGCAG; expressed or natural sequence) [compound 14] | 13 | 
15 (ATGACATTGATCTGATCCA; expressed or natural sequence) [compound 15] | 23 | 
16 (TCTTCAACAGAATCCACTT; expressed or natural sequence) [compound 16] | 6 | 
17 (AAACGCTAAAGATGAGTCC; expressed or natural sequence) [compound 17] | 7 | 
18 (ATTGGTTTGATTTCCTCCC; expressed or natural sequence) [compound 18] | 18 | 
19 (AACATGTTCATAACCAGGTCG; expressed or natural sequence) [compound 19] | 26 | 
20 (TCTTCTAAGCACTGAAGAG; expressed or natural sequence) [compound 20] | 11 | 
21 (TTACTGAACACGATCAGCAGG; expressed or natural sequence) [compound 21] | 22 | 
22 (TACTGAACACGATCAGCAG; expressed or natural sequence) [compound 22] | 9 | 
23 (ATAAATATCTGTTCCCAAG; expressed or natural sequence) [compound 23] | 15 | 
24 (TTCTTGTAAATAATGAGCG; expressed or natural sequence) [compound 24] | 5 | 
25 (TTCTCATAAATCTTGTTCG; expressed or natural sequence) [compound 25] | 15 | 
26 (TTCCAGTAGAAGTAGTACT; expressed or natural sequence) [compound 26] | 12 | 
27 (TTGGATCTGTAAAGACGCCAC; expressed or natural sequence) [compound 27] | 5 | 
FC(F)(F)c1cc(CO[C@H]2CCCN[C@H]2c2ccccc2)cc(C(F)(F)F)c1 [L-733,060, (2S,3S)-3-{[3,5-bis(trifluoromethyl)benzyl]oxy}-2-phenylpiperidine] |  | signs of kidney damage (plasma creatinine, NGAL, osteopontin, urea) (kidneys): decreases the appearance of signs of kidney damage; survival of hRPTEC cells under hypoxia (hRPTEC cells): significantly increases survival; protection from hypoxia, combined inhibition of RhoB and TACR1 (HK-2 cells [2]): better protection that inhibition of either one alone; protection against the effects of hypoxia on HKC8 cells (HKC8 cells): strongly protective
